Here are results for three compounds from US11077102B2, “Multidose package, course and method of treatment for delivering predetermined multiple doses of a pharmaceutical” (BAUSCH HEALTH IRELAND LIMITED, priority 2009, dated 2021).

This data set can be described thus: Stability of formulation in multi-dose container (Rexam 2.05 mL Sof' Airless). The data set is classed as physicochemical. The procedure:
Once a candidate package is identified, stability trials are carried out to determine compatibility of the formulation with the container components. Testing is carried out on the formulation packed in the selected containers and stored under a number of controlled conditions (e.g., 40° C./75% RH and 25° C./60% RH) for a specified time up to the expiry date of the product. Tests will include determination of imiquimod content, preservative content, impurity content, appearance, microscopic examination, pH levels and visual container assessment against set standards.
Two batches of Aldara cream were dispensed into Rexam™ 2.05 mL Sof' Airless™ containers. The batches had been previously tested to determine the amount of preservatives (methyl hydroxybenzoate (MHB), propyl hydroxybenzoate (PHB) benzyl alcohol) and imiquimod, at the beginning of the study in Table 4 below.
The batches were stored under various conditions and then analyzed at 2 months, 4 months, 5.5 months and 13 months as shown in Tables 5 to 7 below. The presence of the contaminant 4-OH-R837 was also tested. NOTE: 4-OH-R837 is an Imiquimod impurity.

For the compound `CC(C)Cn1cnc2c(=O)[nH]c3ccccc3c21` [4 Hydroxy Imipquimod, 4-Hydroxyimiquimod], where the note is “up to and including 13 months”, the “Impurity level in Aldara cream in multi-dose container” value is “below detection limits”.
Turning to `OCc1ccccc1` [Benzyl alcohol, benzyl alcohol], for the setting “40 C/75% RH, up to 13 months, lower specification limit 1.00% w/w”, the “Benzyl alcohol levels in Aldara cream in multi-dose container” value was “just below the lower specification limit”.
For `COC(=O)c1ccc(O)cc1` [MHB, methyl hydroxybenzoate], under “up to and including 13 months, both 25 C/60% RH and 40 C/75% RH”, the “Stability in Aldara cream in multi-dose container” value was “good stability”.
